Measurements: paper PMC3856129, “Cytotoxicity and Genotoxicity Evaluation of Organochalcogens in Human Leucocytes: A Comparative Study between Ebselen, Diphenyl Diselenide, and Diphenyl Ditelluride” (BioMed Research International, 2013)

Legend:
[1] = test system: human leucocytes; test: Comet Assay (DNA damage index); format: cell-based; details: 3 hours at 37°C, compared to the control group
Protocol: (§1) 2 mL of dextran 5% (dissolved in Phosphate Buffer Saline 1%) was added to 8 mL of blood. The tube was gently mixed and left to stand at room temperature for 45 min. Afterwards, the supernatant was centrifuged (480 ×g, 10 min) and plasma was discarded. The pellet was washed with erythrocyte lysis solution (NH4Cl 150 mM; NaHCO3 10 mM; EDTA 1 mM) and centrifuged (480 ×g, 2 min). The supernatant was discarded and the pellet was washed twice with 1 mL erythrocyte lysis solution. After the second centrifugation, the pellet was suspended in 2 mL Hank's buffer solution (KCl 5.4 mM; Na2HPO4 0.3 mM; KH2PO4 0.4 mM; NaHCO3 4.2 mM; MgCl2 0.5 mM; NaCl 122.6 mM; D-glicose 10 mM, Tris-HCl 10 mM; CaCl2 1.3 mM; pH 7.4). The concentration of leucocytes was adjusted to 2000 cells/μL.
(§2) Leucocytes were exposed to ebselen, (PhSe)2, and (PhTe)2 at 5, 10, and 50 μM or an equal volume of DMSO (final concentration of 0.5%) during 3 hours at 37°C. Positive control group was treated with hydrogen peroxide (H2O2) 2 mM and sodium azide 1 mM.
Comet Assay was performed according to Collins with some modifications. After three hours of incubation, 15 μL of the sample was mixed with 90 μL of low-melting point agarose 0.75% and placed in a slide precoated with agarose 1%. A coverslip was added and the samples were left to solidify at 4°C. The coverslips were removed and the slides were placed on a lysis solution (NaCl 2.5 M; EDTA 100 mM; Tris-HCl 8 mM; Triton X-100 1%; pH 10–10.5) during 24 hours at 4°C. Afterwards, the slides were incubated in an electrophoresis solution (NaOH 300 mM; EDTA 1 mM; pH 13.5) for 20 minutes at 4°C and the electrophoresis was performed (25 V; 300 mA; 7 W) for 20 minutes. All the steps were performed in the dark until this moment. After electrophoresis, the slides were washed in a neutralizing solution (Tris-HCl 400 mM; pH 7.5) three times, washed with distilled water, and left to dry. The slides were rehydrated and fixed (Trichloroacetic acid 15%; ZnSO4 5%; glycerol 5%), washed three with distilled water, and left to dry. Afterwards, the rehydrated slides were stained (Na2CO3 5%; NH4NO3 0.1%; AgNO3 0.1%; H4[W12SiO40] 0.25%; formaldehyde 0.15%). The slides were immersed in acetic acid 1%, washed, and left to dry.
One hundred cells randomly selected were analyzed in each sample according to tail size and intensity in five classes. The damage score for each cell can range between 0 (no damage) and 4 (maximum damage), according to Figure 1. Damage index (DI) was defined as follows: DI = 1n1 + 2n2 + 3n3 + 4n4, where n1 represents the number of cells with damage level 1, n2 represents the number of cells with damage level 2, n3 represents the number of cells with damage level 3, and n4 represents the number of cells with damage level 4. At least two different individuals analyzed the slides under blind conditions.

[2] = test system: human leucocytes; test: Trypan's Blue exclusion test (cell viability); format: cell-based; details: for decrease in leucocyte viability: 50 μM; for effect on cell viability at lower concentrations: 5 and 10 μM
Protocol: as §1, §2
Trypan's Blue exclusion test was performed according to Mischel and Shiingi. After 3 hours of incubation, 50 μL of Trypan's Blue 0.4% was mixed with 50 μL of leucocytes and left to stand at room temperature for 5 minutes. Cell viability was determined microscopically (400x magnification) and expressed as number of viable cells divided by the total number of cells multiplied by 100.

[3] = 3 hours at 37°C, compared to the control groups

Structure (SMILES)	damage index (DI) of DNA ([1]; 50 μM)	damage index (DI) of DNA ([1]; 5 and 10 μM)	decrease in leucocyte viability [2, 3]	effect on cell viability at lower concentrations ([2]; 3 hours at 37°C)	decrease in leucocyte viability ([2]; human, 3 h, pH 7.4)
c1ccc([Se][Se]c2ccccc2)cc1 [(PhSe)2, Diphenyl Diselenide]	significant increase in DI	did not cause DNA damage	about 20%	did not cause significant decrease in cell viability	–
c1ccc([Te][Te]c2ccccc2)cc1 [(PhTe)2, Diphenyl Ditelluride]	significant increase in DI	increased DI	about 25%	did not cause significant decrease in cell viability	–
O=c1c2ccccc2[se]n1-c1ccccc1 [ebselen, Ebselen]	significant increase in DI	did not cause DNA damage	–	–	about 60%
